Measured values from US6353015B1, “Method of treating neurodegenerative disorders” (St. Elizabeth's Medical Center, priority 1998, dated 2002).
Entries after “also recorded” stand apart in the source; their conditions may differ. Read-outs that look alike come from different tables or passages of the source. No end group written: not given here.

How the values were obtained:
cerebellar granule cells = assay: βAP 25-35 toxicity assay in mature cerebellar granule cell cultures (Example 5); type: cell-based, rat; details: for protective effect against the toxicity of βAP 25-35 (in words): mature cultures, 8 DIV; for protection of neurons against βAP: compound at 25 μM; for increase of the amount of living CGC, compound alone: concentration range 25-200 μM
Protocol: FIG. 8. […] The difference in numbers of living neurons before and after 4 days of treatment were determined. The amount of viable neurons is expressed as mean (%) above viable in preliminary photography of the same place. Experiments were repeated 2-3 times (n=12-18). For graphical presentation, average data from representative experiments were converted to percentages of control groups viability. Results were expressed as a percentage of survival cells to compare with control ±SEM and were analyzed by a statistical test (ANOVA).
Cerebellar granule cells (CGC) were prepared from the postnatal rats (7-8 days old) by the following procedure based on the generally accepted methods (V. Gallo et al., J. Neurosci. 7:2203-2213, 1987). The pieces of cerebellum were digested with 0,25 mg/ml trypsin for 25 min. at 37° C. and incubated for 5 min. in 0.1% soybean trypsin inhibitor. After washing, cells were dissociated by triturating. Following two centrifugation-resuspension steps, the cells were plated at a density of 2.5-[…] cells per ml on polylysine-coated 24-well plates (Corning) and maintained at 37° C. in a humidified incubator with 5% CO2/95% room air. The medium was composed of Eagle's minimal essential medium and fetal calf serum (10%) supplemented with 20 mM potassium chloride, 10 mM glucose, 2 mM glutainine, 50 μg/ml gentamycin sulfate. Cytosine arabinoside (10 μM) was added 24-48 h later to prevent the replication of non-neuronal cells.
The βAP 25-35 (Bachem) was dissolved by sonication in sterilized distilled water at a concentration of 1 mM. […]
Neuronal viability was evaluated by morphometric cell counting using the presence of neurites and smooth, round cell bodies as criteria of survival. The cells were examined under the phase-contrast microscope Axiovert 25C with videocamera and Software miroMedia PCTV VideoCap program for image scanning and photography. Cell survival was quantified by counting the number of viable neurons in premarked microscope fields prior to, and 4 days after the exposure. The difference in numbers of living neurons before and after 4 days of treatment was determined.
For each experiment, we used 4-6 separate wells of a 24-well multiwell plate for control (with 0.05% DMSO)and for each concentration of compound or composition of compound with βAP. Each well equals one observation, (average of 25 cells per microscope field). Experiments are repeated 2-3 times (n=12-18). For graphical presentation, average data from representative experiments were expressed as a percentage of survival cells in comparison with control ±SEM and analyzed by ANOVA and Student t-test.

AF64A-treated rats [1] = details: rat, in vivo; for Correct responses, % Learning test / Correct responses, % Retention test: po
AF64A-treated rats [2] = assay: Two-way shuttle box avoidance, learning and retention tests (Example 3); type: in vivo, rat
mouse = assay: Mouse tail suspension test; details: in vivo
Description: The combination of cognition-enhancing and antidepressant effect in the one and the same compound might be of additional therapeutic advantage.

Antihypertensive effect = details: in vivo
AF64A-treated rats [3] = assay: Morris water maze test; type: in vivo, rat; details: 0.3 mg/kg daily orally; day 1 and day 5
Protocol: FIGS. 7A and 7B Average swim latency made by rats, when trained 1 (A) and […] to find a platform in Morris water maze test. […] Results were estimated as time required for rat felt into a water pool to reach a platform;**−[…], ***−p<0.001 vs. AF64A-treated group, where p is the significance level (post hoc ANOVA).
The test was started 2 days after the last injection of tested compounds and was performed daily for the period from 3 to 9 day. Round swimming pool (1,8 m diameter and 0,45 m high) with 22° C. water was placed in the center of the room. The platform was located 1 cm below the surface of the water. Starting points for the swims were at the cardinal compass points (N, S, E, W), which were selected in a semi-random fashion for each rat on each trial.
Each experimental group, i.e., control, AF64A-treated groups and groups for each concentration of the tested compounds, contained 9-11 rats. Results were estimated as time required for rat felt into a water pool to reach a platform (a sum of two trials from different position every day). Data were analyzed as the mean±SEM. (ANOVA followed by post hoc comparisons).

rats = assay: Observation of sedative effect during oral treatment
[4] = tested on: Cerebellar granule cells (CGC); assay: Survival of cerebellar granule cells with amyloid beta-protein (Example 4); type: cell-based, rat; parameters: dose or concentration left out as unconfirmed; details: 72 hr
Protocol: Cerebellar granule cells (CGC) obtained from brains of 8-day rat pups were maintained in culture. The amyloid beta-protein (βAP) and/or NAS derivative (DNAS-18) were added to CGC for a period of 72 hr. Vehicle solution was added to CGC in the control experiments. Survival of CGS was assessed by lactate dehydrogenase method and by visual counting of living neurons.

[5] = in rats; Oxenkrug et al. 1994; cited from earlier work
[6] = 3 mg/kg p.o. for 12 days after AF64A i.c.v. 3 nmol/ventricle

Compound | melting point | protective effect against the toxicity of βAP 25-35 (in words) (cerebellar granule cells; 4 days) | cognitive performance of AF64A-treated rats in active avoidance and in water-maze tests (summary) (AF64A-treated rats [1]) | performance in learning paradigm of the active avoidance test (in words) (AF64A-treated rats [1]) | performance in retention paradigm of the active avoidance test (in words) (AF64A-treated rats [1]) | Correct responses, % Learning test (AF64A-treated rats [1]; 3 mg/kg) | Correct responses, % Retention test (AF64A-treated rats [1]; 3 mg/kg) | antidepressant-like activity (decreasing the duration of immobility) (mouse) | antihypertensive effect (Antihypertensive effect) | response time (swim latency to platform) (AF64A-treated rats [3]) | protection of neurons against βAP (cerebellar granule cells; 25 μM βAP) | Correct responses, % Learning test (AF64A-treated rats [1]; 0.3 mg/kg) | Correct responses, % Retention test (AF64A-treated rats [1]; 0.3 mg/kg) | Correct responses, % Learning test (AF64A-treated rats [1]; 1 mg/kg) | Correct responses, % Retention test (AF64A-treated rats [1]; 1 mg/kg) | sedative effect (rats; 0.3 mg/kg orally daily) | comparative efficacy in preventing βAP toxicity (cerebellar granule cells) | increase of the amount of living CGC, compound alone (cerebellar granule cells) | other results
CCC(=O)NCCc1c[nH]c2ccc(OCc3ccccc3)cc12 [CA-15, N-[2-(5-Benzyloxyindol-3-yl)ethyl]propanamide] | 110 to 112 °C | exerted a neuroprotective effect; also recorded: Protective effect | improve cognitive performance | strong tendency (although not reaching the level of statistical significance) towards the improvement | improved the performance | 61.4 ± 7.4% | 68.0 ± 8.4 % | antidepressant-like effects | antihypertensive | – | – | – | – | – | – | – | – | – | duration of cognition-enhancing effect in retention test after the learning trials (AF64A-treated rats [2]; 3 mg/kg p.o. for 12 days after AF64A): ≥ 10 days; number of correct responses, learning test (in words) (AF64A-treated rats [2]; [6]): almost completely restored; number of correct responses, retention test (in words) (AF64A-treated rats [2]; [6]): almost completely restored
CCCC(=O)NCCc1c[nH]c2ccc(OCc3ccccc3)cc12 [CA-18, N-[2-(5-Benzyloxyindol-3-yl)ethyl] butanamide] | 112 to 114 °C | exerted a neuroprotective effect | improve cognitive performance | completely restored; also recorded: strong tendency (although not reaching the level of statistical significance) towards the improvement | – | – | – | antidepressant-like effects | antihypertensive | decreased the response time | 93% | 84.0 ± 5.4 % | 82.7 ± 5.0 % | 50.0 ± 8.8% | 48.1 ± 9.8% | did not induced sedation | – | – | antidepressant-like activity, comparison CA-18 with CA-15 (mouse): more pronounced; sedative effect (rats; 1 mg/kg orally daily): did not induced sedation; viability of neurons, compound added to βAP [4]: 98±4 % of control; increase of viability of CGC neurons, compound alone ([4]; mean±S.E.): 18±3 % of control
COc1ccc2[nH]cc(CCNC(C)=O)c2c1 [Melatonin, reference compound] | – | Protective effect | improve cognitive performance | completely restored; also recorded: significant but somewhat less pronounced | completely restored; also recorded: significant but somewhat less pronounced | 75.4 ± 7.0 % | 72.2 ± 5.8 % | – | – | decreased the response time | 90% | 79.0 ± 6.0 % | 83.2 ± 3.2 % | – | – | did not induced sedation | less effective | 3-10 % of control | protective effect against the toxicity of βAP 25-35 (in words) (cerebellar granule cells; 4 days, listed as melatonin): exerted a neuroprotective effect; onset of sedative effect (rats; 3 mg/kg orally daily): 3-4 days of treatment; sedative effect (rats; 3 mg/kg orally daily): unspecified sedative effect
CC(=O)NCCc1c[nH]c2ccc(O)cc12 [NAS, N-acetylserotonin] | – | exerted a neuroprotective effect; also recorded: Protective effect | improve cognitive performance | improved the performance | not in retention | – | – | – | – | – | – | – | – | 65.4 ± 8.8 % | 56.0 ± 9.2 % | – | strongest | 16-28 % of control | viable neurons, co-incubation with βAP (cerebellar granule cells; 25 μM compound): 101±5 % of control; conversion of NAS into melatonin [5]: rapidly converted into melatonin
GSNKGAIIGLM [βAP, reference compound] | – | – | – | – | – | – | – | – | – | – | – | – | – | – | – | – | – | – | viability of neurons exposed to βAP alone (cerebellar granule cells; 25 μM βAP, 4 days, mean ±SEM): 58±7 % of control; viability of CGC neurons with βAP alone ([4]; βAP, mean±S.E.): 56±8 % of control
